Results published in patent US4442044A, “Process for preparing monoesters and diesters of N-alkyl substituted amino methyl phosphonic acid” (priority 1983, dated 1984).

Columns and labels:
Experiment in all cases: post-emergent herbicidal activity, greenhouse
Format in all cases: in vivo
Barnyardgrass = test system: Barnyardgrass
Description: (§1) A good grade of top soil is placed in aluminum pans having holes in the bottom and compacted to a depth of 0.95 to 1.27 cm. from the top of the pan. A predetermined number of seeds of each of several dicotyledonous and monocotyledonous annual plant species and/or vegetative propagules for the perennial plant species were placed on the soil and pressed into the soil surface. The seeds and/or vegetative propagules are covered with soil and leveled. The pans are then placed on a sand bench in the greenhouse and watered from below as needed. After the plants reach the desired age (two to three weeks), each pan except for the control pans is removed individually to a spraying chamber and sprayed by means of an atomizer operating at a positive air pressure of approximately 1.46 kg/cm^2 absolute. The atomizer contains 6 ml. of a solution or suspension of the chemical. In that 6 ml., is an amount of a cyclohexanone emulsifying agent mixture to give a spray solution or suspension which contains about 0.4% by weight of the emulsifier. The spray solution or suspension contains a sufficient amount of the candidate chemical in order to give application rates corresponding to those set forth in the tables. The spray solution is prepared by taking an aliquot of a 1.0% by weight stock solution or suspension of the candidate chemical in an organic solvent such as acetone or tetrahydrofuran or in water. The emulsifying agent employed is a mixture comprising 35 weight percent butylamine dodecylbenzene sulfonate and 65 weight percent of a tall oil ethylene oxide condensate having about 11 moles of ethylene oxide per mole of tall oil. The pans are returned to the greenhouse and watered as before and the injury to the plants as compared to the control is observed at approximately two and four weeks as indicated in the tables under WAT and the results recorded. In some instances, the two-week observations are omitted.
(§2) The post-emergent herbicidal activity index used in Tables I and II is as follows: […]

Canada Thistle = conditions: Table I
Description: as §1, §2

Cocklebur = test system: Cocklebur
Description: as §1, §2

Crabgrass = conditions: Table II, 4 WAT
Description: as §1, §2

Downy Brome = test system: Downy Brome
Description: as §1, §2

Hemp Sesbania = conditions: Table II, 4 WAT
Description: as §1, §2

Johnsongrass = conditions: Table I
Description: as §1, §2

Lambsquarters = test system: Lambsquarters
Description: as §1, §2

Morningglory = test system: Morningglory
Description: as §1, §2

Panicum Spp = conditions: Table II, 4 WAT
Description: as §1, §2

Quackgrass = conditions: Table I
Description: as §1, §2

Rice = conditions: Table II, 4 WAT
Description: as §1, §2

Smartweed = test system: Smartweed
Description: as §1, §2

Sorghum = conditions: Table II, 4 WAT
Description: as §1, §2

Soybean = conditions: Table II, 4 WAT
Description: as §1, §2

Sugar Beet = conditions: Table II, 4 WAT
Description: as §1, §2

Velvetleaf = test system: Velvetleaf
Description: as §1, §2

Wheat = conditions: Table II, 4 WAT
Description: as §1, §2

Wild Buckwheat = conditions: Table II, 4 WAT
Description: as §1, §2

Yellow Nutsedge = conditions: Table I
Description: as §1, §2

## CCOC(=O)CNCP(=O)(OC(C)C#N)OC(C)C#N (stereo not shown) [Example 1, glycine, N-[[bis(1-cyanoethoxy)phosphinyl]methyl], ethyl ester]
Barnyardgrass; Table I, 4 WAT, 5.6 kg/h
  post-emergent herbicidal activity index: 4 (100% control)
Barnyardgrass; Table I, 4 WAT, 11.2 kg/h
  post-emergent herbicidal activity index: 4 (100% control)
Barnyardgrass; Table II, 4 WAT, 0.28 kg/h
  post-emergent herbicidal activity index: 2 (50-74% control)
Barnyardgrass; Table II, 4 WAT, 1.12 kg/h
  post-emergent herbicidal activity index: 3 (75-99% control)
Barnyardgrass; Table II, 4 WAT, 5.6 kg/h
  post-emergent herbicidal activity index: 4 (100% control)
Canada Thistle; 4 WAT, 5.6 kg/h
  post-emergent herbicidal activity index: 4 (100% control)
Canada Thistle; 4 WAT, 11.2 kg/h
  post-emergent herbicidal activity index: 3 (75-99% control)
Cocklebur; Table I, 4 WAT, 5.6 kg/h
  post-emergent herbicidal activity index: 3 (75-99% control)
Cocklebur; Table I, 4 WAT, 11.2 kg/h
  post-emergent herbicidal activity index: 3 (75-99% control)
Cocklebur; Table II, 4 WAT, 0.28 kg/h
  post-emergent herbicidal activity index: 1 (25-49% control)
Cocklebur; Table II, 4 WAT, 1.12 kg/h
  post-emergent herbicidal activity index: 2 (50-74% control)
Cocklebur; Table II, 4 WAT, 5.6 kg/h
  post-emergent herbicidal activity index: 3 (75-99% control)
Crabgrass; 0.28 kg/h
  post-emergent herbicidal activity index: 1 (25-49% control)
Crabgrass; 1.12 kg/h
  post-emergent herbicidal activity index: 3 (75-99% control)
Crabgrass; 5.6 kg/h
  post-emergent herbicidal activity index: 4 (100% control)
Downy Brome; Table I, 4 WAT, 5.6 kg/h
  post-emergent herbicidal activity index: 3 (75-99% control)
Downy Brome; Table I, 4 WAT, 11.2 kg/h
  post-emergent herbicidal activity index: 2 (50-74% control)
Downy Brome; Table II, 4 WAT, 0.28 kg/h
  post-emergent herbicidal activity index: 0 (0-24% control)
Downy Brome; Table II, 4 WAT, 1.12 kg/h
  post-emergent herbicidal activity index: 2 (50-74% control)
Downy Brome; Table II, 4 WAT, 5.6 kg/h
  post-emergent herbicidal activity index: 4 (100% control)
Hemp Sesbania; 0.28 kg/h
  post-emergent herbicidal activity index: 0 (0-24% control)
Hemp Sesbania; 1.12 kg/h
  post-emergent herbicidal activity index: 5
Hemp Sesbania; 5.6 kg/h
  post-emergent herbicidal activity index: 2 (50-74% control)
Johnsongrass; 4 WAT, 5.6 kg/h
  post-emergent herbicidal activity index: 3 (75-99% control)
Johnsongrass; 4 WAT, 11.2 kg/h
  post-emergent herbicidal activity index: 4 (100% control)
Lambsquarters; Table I, 4 WAT, 5.6 kg/h
  post-emergent herbicidal activity index: 3 (75-99% control)
Lambsquarters; Table I, 4 WAT, 11.2 kg/h
  post-emergent herbicidal activity index: 1 (25-49% control)
Lambsquarters; Table II, 4 WAT, 0.28 kg/h
  post-emergent herbicidal activity index: 0 (0-24% control)
Lambsquarters; Table II, 4 WAT, 1.12 kg/h
  post-emergent herbicidal activity index: 3 (75-99% control)
Lambsquarters; Table II, 4 WAT, 5.6 kg/h
  post-emergent herbicidal activity index: 3 (75-99% control)
Morningglory; Table I, 4 WAT, 5.6 kg/h
  post-emergent herbicidal activity index: 3 (75-99% control)
Morningglory; Table I, 4 WAT, 11.2 kg/h
  post-emergent herbicidal activity index: 3 (75-99% control)
Morningglory; Table II, 4 WAT, 0.28 kg/h
  post-emergent herbicidal activity index: 1 (25-49% control)
Morningglory; Table II, 4 WAT, 1.12 kg/h
  post-emergent herbicidal activity index: 2 (50-74% control)
Morningglory; Table II, 4 WAT, 5.6 kg/h
  post-emergent herbicidal activity index: 3 (75-99% control)
Panicum Spp; 0.28 kg/h
  post-emergent herbicidal activity index: 2 (50-74% control)
Panicum Spp; 1.12 kg/h
  post-emergent herbicidal activity index: 4 (100% control)
Panicum Spp; 5.6 kg/h
  post-emergent herbicidal activity index: 4 (100% control)
Quackgrass; 4 WAT, 5.6 kg/h
  post-emergent herbicidal activity index: 3 (75-99% control)
Quackgrass; 4 WAT, 11.2 kg/h
  post-emergent herbicidal activity index: 2 (50-74% control)
Rice; 0.28 kg/h
  post-emergent herbicidal activity index: 0 (0-24% control)
Rice; 1.12 kg/h
  post-emergent herbicidal activity index: 1 (25-49% control)
Rice; 5.6 kg/h
  post-emergent herbicidal activity index: 4 (100% control)
Smartweed; Table I, 4 WAT, 5.6 kg/h
  post-emergent herbicidal activity index: 3 (75-99% control)
Smartweed; Table I, 4 WAT, 11.2 kg/h
  post-emergent herbicidal activity index: 4 (100% control)
Smartweed; Table II, 4 WAT, 0.28 kg/h
  post-emergent herbicidal activity index: 0 (0-24% control)
Smartweed; Table II, 4 WAT, 1.12 kg/h
  post-emergent herbicidal activity index: 3 (75-99% control)
Smartweed; Table II, 4 WAT, 5.6 kg/h
  post-emergent herbicidal activity index: 4 (100% control)
Sorghum; 0.28 kg/h
  post-emergent herbicidal activity index: 1 (25-49% control)
Sorghum; 1.12 kg/h
  post-emergent herbicidal activity index: 3 (75-99% control)
Sorghum; 5.6 kg/h
  post-emergent herbicidal activity index: 4 (100% control)
Soybean; 0.28 kg/h
  post-emergent herbicidal activity index: 0 (0-24% control)
Soybean; 1.12 kg/h
  post-emergent herbicidal activity index: 2 (50-74% control)
Soybean; 5.6 kg/h
  post-emergent herbicidal activity index: 4 (100% control)
Sugar Beet; 0.28 kg/h
  post-emergent herbicidal activity index: 2 (50-74% control)
Sugar Beet; 1.12 kg/h
  post-emergent herbicidal activity index: 4 (100% control)
Sugar Beet; 5.6 kg/h
  post-emergent herbicidal activity index: 4 (100% control)
Velvetleaf; Table I, 4 WAT, 5.6 kg/h
  post-emergent herbicidal activity index: 4 (100% control)
Velvetleaf; Table I, 4 WAT, 11.2 kg/h
  post-emergent herbicidal activity index: 3 (75-99% control)
Velvetleaf; Table II, 4 WAT, 0.28 kg/h
  post-emergent herbicidal activity index: 0 (0-24% control)
Velvetleaf; Table II, 4 WAT, 1.12 kg/h
  post-emergent herbicidal activity index: 2 (50-74% control)
Velvetleaf; Table II, 4 WAT, 5.6 kg/h
  post-emergent herbicidal activity index: 4 (100% control)
Wheat; 0.28 kg/h
  post-emergent herbicidal activity index: 1 (25-49% control)
Wheat; 1.12 kg/h
  post-emergent herbicidal activity index: 2 (50-74% control)
Wheat; 5.6 kg/h
  post-emergent herbicidal activity index: 4 (100% control)
Wild Buckwheat; 0.28 kg/h
  post-emergent herbicidal activity index: 0 (0-24% control)
Wild Buckwheat; 1.12 kg/h
  post-emergent herbicidal activity index: 2 (50-74% control)
Wild Buckwheat; 5.6 kg/h
  post-emergent herbicidal activity index: 4 (100% control)
Yellow Nutsedge; 4 WAT, 5.6 kg/h
  post-emergent herbicidal activity index: 2 (50-74% control)
Yellow Nutsedge; 4 WAT, 11.2 kg/h
  post-emergent herbicidal activity index: 3 (75-99% control)

## CCOC(=O)CNCP(=O)(OCC1CCCCO1)OCC1CCCCO1 (stereo not shown) [Example 23, glycine, N-[[bis(tetrahydro-2H-pyran-2-ylmethoxy)phosphinyl]methyl]-, ethyl ester]
Barnyardgrass; Table I, 2 WAT, 5.6 kg/h
  post-emergent herbicidal activity index: 0 (0-24% control)
Barnyardgrass; Table I, 4 WAT, 11.2 kg/h
  post-emergent herbicidal activity index: 1 (25-49% control)
Canada Thistle; 2 WAT, 5.6 kg/h
  post-emergent herbicidal activity index: 0 (0-24% control)
Canada Thistle; 4 WAT, 11.2 kg/h
  post-emergent herbicidal activity index: 0 (0-24% control)
Cocklebur; Table I, 2 WAT, 5.6 kg/h
  post-emergent herbicidal activity index: 0 (0-24% control)
Cocklebur; Table I, 4 WAT, 11.2 kg/h
  post-emergent herbicidal activity index: 0 (0-24% control)
Downy Brome; Table I, 2 WAT, 5.6 kg/h
  post-emergent herbicidal activity index: 0 (0-24% control)
Downy Brome; Table I, 4 WAT, 11.2 kg/h
  post-emergent herbicidal activity index: 0 (0-24% control)
Johnsongrass; 2 WAT, 5.6 kg/h
  post-emergent herbicidal activity index: 0 (0-24% control)
Lambsquarters; Table I, 2 WAT, 5.6 kg/h
  post-emergent herbicidal activity index: 0 (0-24% control)
Lambsquarters; Table I, 4 WAT, 11.2 kg/h
  post-emergent herbicidal activity index: 0 (0-24% control)
Morningglory; Table I, 2 WAT, 5.6 kg/h
  post-emergent herbicidal activity index: 0 (0-24% control)
Morningglory; Table I, 4 WAT, 11.2 kg/h
  post-emergent herbicidal activity index: 1 (25-49% control)
Quackgrass; 2 WAT, 5.6 kg/h
  post-emergent herbicidal activity index: 0 (0-24% control)
Quackgrass; 4 WAT, 11.2 kg/h
  post-emergent herbicidal activity index: 0 (0-24% control)
Smartweed; Table I, 2 WAT, 5.6 kg/h
  post-emergent herbicidal activity index: 0 (0-24% control)
Smartweed; Table I, 4 WAT, 11.2 kg/h
  post-emergent herbicidal activity index: 1 (25-49% control)
Velvetleaf; Table I, 2 WAT, 5.6 kg/h
  post-emergent herbicidal activity index: 0 (0-24% control)
Velvetleaf; Table I, 4 WAT, 11.2 kg/h
  post-emergent herbicidal activity index: 0 (0-24% control)
Yellow Nutsedge; 2 WAT, 5.6 kg/h
  post-emergent herbicidal activity index: 0 (0-24% control)
Yellow Nutsedge; 4 WAT, 11.2 kg/h
  post-emergent herbicidal activity index: 0 (0-24% control)
